Laboratory results published in ChEMBL document CHEMBL5291721, “A preclinical secondary pharmacology resource illuminates target-adverse drug reaction associations of marketed drugs” (Nat Commun, 2023).

Assays:
Mu-type opioid receptor = Mu-type opioid receptor (Homo sapiens, UniProt P35372)
Thromboxane A2 receptor = target: T1, Thromboxane A2 receptor (Homo sapiens, UniProt P21731); type: functional, cell-based
T1 sequence (P21731 whole entry): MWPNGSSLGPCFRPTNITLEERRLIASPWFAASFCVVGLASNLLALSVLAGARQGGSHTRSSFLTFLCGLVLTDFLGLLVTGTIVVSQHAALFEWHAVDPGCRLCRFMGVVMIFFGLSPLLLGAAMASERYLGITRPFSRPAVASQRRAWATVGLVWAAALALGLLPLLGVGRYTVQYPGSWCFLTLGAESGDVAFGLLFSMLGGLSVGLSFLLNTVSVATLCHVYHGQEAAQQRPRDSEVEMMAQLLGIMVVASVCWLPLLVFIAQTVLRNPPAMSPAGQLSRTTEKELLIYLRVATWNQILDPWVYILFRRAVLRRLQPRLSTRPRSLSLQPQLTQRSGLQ

[1] = target: Prostaglandin G/H synthase 1 (Homo sapiens, UniProt P23219); type: functional
[2] = target: Sodium-dependent noradrenaline transporter (Homo sapiens, UniProt P23975)
Histamine H3 receptor = Histamine H3 receptor (Homo sapiens, UniProt Q9Y5N1)
Progesterone receptor = target: T2, Progesterone receptor (Homo sapiens, UniProt P06401)
T2 sequence (P06401 whole entry): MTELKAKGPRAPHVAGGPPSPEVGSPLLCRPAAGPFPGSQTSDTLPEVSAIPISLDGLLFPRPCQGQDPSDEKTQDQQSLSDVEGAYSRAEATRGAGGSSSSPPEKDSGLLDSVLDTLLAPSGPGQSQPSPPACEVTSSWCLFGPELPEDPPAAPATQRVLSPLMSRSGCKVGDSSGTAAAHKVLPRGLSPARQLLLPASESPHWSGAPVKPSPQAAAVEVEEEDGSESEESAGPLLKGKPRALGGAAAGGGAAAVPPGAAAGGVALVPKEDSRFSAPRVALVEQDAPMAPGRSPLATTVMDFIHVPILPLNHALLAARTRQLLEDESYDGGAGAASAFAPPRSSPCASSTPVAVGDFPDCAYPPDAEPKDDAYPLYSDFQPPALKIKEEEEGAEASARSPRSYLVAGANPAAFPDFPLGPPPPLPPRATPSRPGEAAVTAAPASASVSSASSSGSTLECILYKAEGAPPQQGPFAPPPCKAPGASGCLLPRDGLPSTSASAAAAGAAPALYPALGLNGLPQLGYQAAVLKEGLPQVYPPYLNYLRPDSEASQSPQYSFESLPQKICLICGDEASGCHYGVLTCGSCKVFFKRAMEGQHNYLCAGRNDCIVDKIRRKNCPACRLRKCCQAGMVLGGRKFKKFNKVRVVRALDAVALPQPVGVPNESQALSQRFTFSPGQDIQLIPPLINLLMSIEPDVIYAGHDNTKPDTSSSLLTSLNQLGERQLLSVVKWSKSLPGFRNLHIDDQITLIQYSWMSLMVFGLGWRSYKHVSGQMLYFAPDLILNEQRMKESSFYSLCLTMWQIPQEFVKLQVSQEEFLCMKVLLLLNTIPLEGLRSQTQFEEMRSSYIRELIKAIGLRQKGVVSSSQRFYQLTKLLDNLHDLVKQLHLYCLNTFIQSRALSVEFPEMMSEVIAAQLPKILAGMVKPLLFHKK

[3] = target: T3, Alpha-1A adrenergic receptor (Homo sapiens, UniProt P35348); type: functional, cell-based
T3 sequence (P35348 whole entry): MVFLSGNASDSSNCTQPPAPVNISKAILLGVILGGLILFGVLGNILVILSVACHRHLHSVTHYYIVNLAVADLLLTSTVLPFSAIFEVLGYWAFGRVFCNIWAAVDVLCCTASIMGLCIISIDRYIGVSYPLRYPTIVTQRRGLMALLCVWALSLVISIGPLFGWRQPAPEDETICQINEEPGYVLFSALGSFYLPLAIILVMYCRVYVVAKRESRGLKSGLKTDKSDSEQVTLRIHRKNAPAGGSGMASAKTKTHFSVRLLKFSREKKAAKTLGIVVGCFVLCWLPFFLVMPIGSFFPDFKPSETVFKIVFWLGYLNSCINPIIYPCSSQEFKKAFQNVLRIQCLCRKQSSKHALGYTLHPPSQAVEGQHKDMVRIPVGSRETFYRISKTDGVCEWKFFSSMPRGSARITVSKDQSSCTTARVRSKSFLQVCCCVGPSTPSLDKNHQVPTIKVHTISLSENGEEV

Prothrombin = Prothrombin (Homo sapiens, UniProt P00734); type: functional
[4] = target: T4, Muscarinic acetylcholine receptor M1 (Homo sapiens, UniProt P11229); type: functional, cell-based
T4 sequence (P11229 whole entry): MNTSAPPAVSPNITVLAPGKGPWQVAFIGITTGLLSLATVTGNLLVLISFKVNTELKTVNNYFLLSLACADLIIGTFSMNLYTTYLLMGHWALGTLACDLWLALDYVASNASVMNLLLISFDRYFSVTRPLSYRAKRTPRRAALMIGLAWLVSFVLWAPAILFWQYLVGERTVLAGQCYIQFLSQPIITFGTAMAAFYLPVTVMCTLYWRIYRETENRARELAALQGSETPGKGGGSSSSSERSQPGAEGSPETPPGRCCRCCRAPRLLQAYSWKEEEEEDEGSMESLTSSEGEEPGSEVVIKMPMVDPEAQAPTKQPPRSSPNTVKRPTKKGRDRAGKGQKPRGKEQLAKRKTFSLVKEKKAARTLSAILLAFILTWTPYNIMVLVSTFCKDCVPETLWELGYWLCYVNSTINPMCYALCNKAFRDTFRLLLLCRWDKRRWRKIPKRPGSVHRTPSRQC

Adenosine receptor A3 = target: T5, Adenosine receptor A3 (Homo sapiens, UniProt P0DMS8)
T5 sequence (P0DMS8 whole entry): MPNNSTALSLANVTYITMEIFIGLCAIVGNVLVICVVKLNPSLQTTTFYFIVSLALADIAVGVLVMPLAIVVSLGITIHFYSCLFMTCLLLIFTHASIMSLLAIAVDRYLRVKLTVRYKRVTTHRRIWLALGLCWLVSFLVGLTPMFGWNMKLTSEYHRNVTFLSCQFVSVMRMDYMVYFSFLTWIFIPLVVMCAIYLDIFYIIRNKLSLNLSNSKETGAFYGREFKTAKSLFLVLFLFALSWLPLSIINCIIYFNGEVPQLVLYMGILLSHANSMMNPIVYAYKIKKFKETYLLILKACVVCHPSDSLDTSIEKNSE

Acetylcholinesterase = Acetylcholinesterase (Homo sapiens, UniProt P22303); type: functional
D(1A) dopamine receptor = D(1A) dopamine receptor (Homo sapiens, UniProt P21728)
Also: assay procedure not described here.

Sequence of D(1A) dopamine receptor (P21728 whole entry): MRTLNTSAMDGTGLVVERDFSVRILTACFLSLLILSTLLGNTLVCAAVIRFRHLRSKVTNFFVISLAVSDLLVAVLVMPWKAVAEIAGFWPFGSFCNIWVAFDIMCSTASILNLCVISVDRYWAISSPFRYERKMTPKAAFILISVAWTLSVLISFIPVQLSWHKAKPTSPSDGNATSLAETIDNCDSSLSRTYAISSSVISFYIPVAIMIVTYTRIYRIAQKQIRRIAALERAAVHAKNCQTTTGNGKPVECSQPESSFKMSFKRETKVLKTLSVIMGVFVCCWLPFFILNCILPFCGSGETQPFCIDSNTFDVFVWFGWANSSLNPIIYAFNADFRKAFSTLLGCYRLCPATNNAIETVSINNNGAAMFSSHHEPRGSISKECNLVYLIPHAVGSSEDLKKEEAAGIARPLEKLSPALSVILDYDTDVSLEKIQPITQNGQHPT
Sequence of Sodium-dependent noradrenaline transporter (P23975 whole entry): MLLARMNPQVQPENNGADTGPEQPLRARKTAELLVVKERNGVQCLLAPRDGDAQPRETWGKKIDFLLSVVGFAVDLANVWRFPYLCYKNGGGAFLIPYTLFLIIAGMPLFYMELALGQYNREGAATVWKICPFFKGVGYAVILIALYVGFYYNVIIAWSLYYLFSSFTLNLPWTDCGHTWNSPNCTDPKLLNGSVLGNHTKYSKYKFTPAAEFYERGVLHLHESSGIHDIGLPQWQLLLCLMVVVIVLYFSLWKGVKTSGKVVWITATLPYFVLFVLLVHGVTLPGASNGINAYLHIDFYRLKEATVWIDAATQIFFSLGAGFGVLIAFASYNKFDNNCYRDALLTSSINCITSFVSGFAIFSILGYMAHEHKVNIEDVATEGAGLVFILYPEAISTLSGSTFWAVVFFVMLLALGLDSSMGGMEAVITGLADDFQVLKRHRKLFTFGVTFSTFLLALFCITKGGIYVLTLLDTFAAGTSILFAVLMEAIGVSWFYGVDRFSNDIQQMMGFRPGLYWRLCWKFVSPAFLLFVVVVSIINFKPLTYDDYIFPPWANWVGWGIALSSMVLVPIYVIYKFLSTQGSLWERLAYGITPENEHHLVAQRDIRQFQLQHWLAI
Sequence of Prostaglandin G/H synthase 1 (P23219 whole entry): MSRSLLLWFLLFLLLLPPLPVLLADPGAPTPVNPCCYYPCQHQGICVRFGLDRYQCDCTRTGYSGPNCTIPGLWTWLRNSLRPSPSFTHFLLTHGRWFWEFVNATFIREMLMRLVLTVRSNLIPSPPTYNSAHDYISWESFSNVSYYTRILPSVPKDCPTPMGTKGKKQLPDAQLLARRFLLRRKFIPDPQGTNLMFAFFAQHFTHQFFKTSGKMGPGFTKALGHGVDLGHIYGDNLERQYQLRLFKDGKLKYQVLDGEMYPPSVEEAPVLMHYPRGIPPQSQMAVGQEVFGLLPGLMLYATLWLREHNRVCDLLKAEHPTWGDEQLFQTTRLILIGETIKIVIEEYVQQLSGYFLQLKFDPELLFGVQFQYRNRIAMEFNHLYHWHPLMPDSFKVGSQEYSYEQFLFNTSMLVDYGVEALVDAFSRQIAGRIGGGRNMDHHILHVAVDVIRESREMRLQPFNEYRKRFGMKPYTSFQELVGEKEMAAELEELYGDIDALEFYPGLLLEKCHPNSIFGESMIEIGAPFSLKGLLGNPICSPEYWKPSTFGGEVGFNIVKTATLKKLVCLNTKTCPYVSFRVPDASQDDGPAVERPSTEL
Sequence of Mu-type opioid receptor (P35372 whole entry): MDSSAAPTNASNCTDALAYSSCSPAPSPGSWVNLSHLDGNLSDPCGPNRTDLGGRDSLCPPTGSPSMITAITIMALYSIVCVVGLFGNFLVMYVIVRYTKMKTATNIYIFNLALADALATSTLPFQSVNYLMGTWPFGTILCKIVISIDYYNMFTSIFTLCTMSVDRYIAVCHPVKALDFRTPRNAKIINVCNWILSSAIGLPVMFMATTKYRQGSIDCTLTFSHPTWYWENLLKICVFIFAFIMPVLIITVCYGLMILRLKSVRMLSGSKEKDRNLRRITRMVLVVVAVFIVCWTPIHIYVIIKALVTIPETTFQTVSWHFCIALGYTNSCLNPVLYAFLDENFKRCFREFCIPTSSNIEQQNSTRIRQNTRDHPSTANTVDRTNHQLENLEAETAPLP
Sequence of Histamine H3 receptor (Q9Y5N1 whole entry): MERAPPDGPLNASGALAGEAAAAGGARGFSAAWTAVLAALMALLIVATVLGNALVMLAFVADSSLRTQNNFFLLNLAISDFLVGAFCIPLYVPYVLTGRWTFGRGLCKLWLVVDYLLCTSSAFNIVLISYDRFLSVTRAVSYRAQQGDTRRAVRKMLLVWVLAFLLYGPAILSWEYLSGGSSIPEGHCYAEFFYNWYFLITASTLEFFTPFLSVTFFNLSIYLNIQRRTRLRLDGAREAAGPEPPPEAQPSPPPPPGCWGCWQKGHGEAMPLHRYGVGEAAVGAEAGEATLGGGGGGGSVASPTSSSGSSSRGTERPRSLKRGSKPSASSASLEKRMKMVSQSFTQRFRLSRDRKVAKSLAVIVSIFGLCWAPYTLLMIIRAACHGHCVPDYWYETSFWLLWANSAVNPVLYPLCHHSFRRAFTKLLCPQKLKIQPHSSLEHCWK
Sequence of Acetylcholinesterase (P22303 whole entry): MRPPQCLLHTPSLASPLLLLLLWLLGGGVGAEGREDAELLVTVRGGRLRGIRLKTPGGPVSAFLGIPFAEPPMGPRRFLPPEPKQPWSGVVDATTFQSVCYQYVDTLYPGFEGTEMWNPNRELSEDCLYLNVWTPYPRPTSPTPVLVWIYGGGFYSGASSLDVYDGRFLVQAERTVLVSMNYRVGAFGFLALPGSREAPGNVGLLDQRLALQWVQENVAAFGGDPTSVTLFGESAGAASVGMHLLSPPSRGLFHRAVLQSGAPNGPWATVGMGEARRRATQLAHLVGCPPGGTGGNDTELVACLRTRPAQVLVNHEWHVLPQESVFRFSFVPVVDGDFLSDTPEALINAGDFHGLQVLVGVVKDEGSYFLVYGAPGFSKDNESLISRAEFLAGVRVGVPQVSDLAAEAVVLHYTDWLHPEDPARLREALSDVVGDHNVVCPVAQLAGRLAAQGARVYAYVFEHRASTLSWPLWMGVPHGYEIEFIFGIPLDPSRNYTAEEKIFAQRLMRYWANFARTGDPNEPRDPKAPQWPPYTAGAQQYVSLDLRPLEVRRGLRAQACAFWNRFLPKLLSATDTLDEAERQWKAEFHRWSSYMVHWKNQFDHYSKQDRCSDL

## C[S+](CC[C@H](N)C(=O)[O-])C[C@H]1O[C@@H](n2cnc3c(N)ncnc32)[C@H](O)[C@@H]1O (some centres undefined) [ADEMETIONINE]
Mu-type opioid receptor
  AC50: > 30 µM
Thromboxane A2 receptor
  AC50: > 30 µM
[1]
  AC50: > 30 µM
[2]
  AC50: > 30 µM
Histamine H3 receptor
  AC50: > 30 µM
Progesterone receptor
  AC50: > 30 µM
[3]
  AC50: > 30 µM
Prothrombin
  AC50: > 30 µM
[4]
  AC50: > 30 µM
Adenosine receptor A3
  AC50: 0.174 µM
Acetylcholinesterase
  AC50: > 30 µM
D(1A) dopamine receptor
  AC50: > 30 µM

## Nc1ccncc1N [AMIFAMPRIDINE]
Mu-type opioid receptor
  AC50: > 30 µM
Thromboxane A2 receptor
  AC50: > 30 µM
[1]
  AC50: > 30 µM
[2]
  AC50: > 30 µM
Histamine H3 receptor
  AC50: > 30 µM
Progesterone receptor
  AC50: > 30 µM
[3]
  AC50: > 30 µM
Prothrombin
  AC50: > 30 µM
[4]
  AC50: > 30 µM
Adenosine receptor A3
  AC50: > 30 µM
Acetylcholinesterase
  AC50: > 30 µM
D(1A) dopamine receptor
  AC50: > 30 µM

## CCC(C)(C)c1ccc(CC(C)CN2C[C@@H](C)O[C@@H](C)C2)cc1 (some centres undefined) [AMOROLFINE]
Mu-type opioid receptor
  AC50: > 30 µM
Thromboxane A2 receptor
  AC50: > 30 µM
[1]
  AC50: > 30 µM
[2]
  AC50: > 30 µM
Histamine H3 receptor
  AC50: > 30 µM
Progesterone receptor
  AC50: > 30 µM
[3]
  AC50: > 30 µM
Prothrombin
  AC50: > 30 µM
[4]
  AC50: 10.8 µM
Adenosine receptor A3
  AC50: 12.1 µM
Acetylcholinesterase
  AC50: > 30 µM
D(1A) dopamine receptor
  AC50: > 30 µM

## N=c1ccn2c(n1)O[C@H]1[C@H](O)[C@@H](CO)O[C@H]12 [ANCITABINE]
Mu-type opioid receptor
  AC50: > 30 µM
Thromboxane A2 receptor
  AC50: > 30 µM
[1]
  AC50: > 30 µM
[2]
  AC50: > 30 µM
Histamine H3 receptor
  AC50: > 30 µM
Progesterone receptor
  AC50: > 30 µM
[3]
  AC50: > 30 µM
Prothrombin
  AC50: > 30 µM
[4]
  AC50: > 30 µM
Adenosine receptor A3
  AC50: > 30 µM
Acetylcholinesterase
  AC50: > 30 µM
D(1A) dopamine receptor
  AC50: > 30 µM

## CCCNC(C)C(=O)Nc1c(C)csc1C(=O)OC (centres undefined) [ARTICAINE]
Mu-type opioid receptor
  AC50: > 30 µM
Thromboxane A2 receptor
  AC50: > 30 µM
[1]
  AC50: > 30 µM
[2]
  AC50: > 30 µM
Histamine H3 receptor
  AC50: > 30 µM
Progesterone receptor
  AC50: > 30 µM
[3]
  AC50: > 30 µM
Prothrombin
  AC50: > 30 µM
[4]
  AC50: > 30 µM
Adenosine receptor A3
  AC50: > 30 µM
Acetylcholinesterase
  AC50: > 30 µM
D(1A) dopamine receptor
  AC50: > 30 µM

## NC(=O)C[C@H](N)C(=O)O [ASPARAGINE]
Mu-type opioid receptor
  AC50: > 30 µM
Thromboxane A2 receptor
  AC50: > 30 µM
[1]
  AC50: > 30 µM
[2]
  AC50: > 30 µM
Histamine H3 receptor
  AC50: > 30 µM
Progesterone receptor
  AC50: > 30 µM
[3]
  AC50: > 30 µM
Prothrombin
  AC50: > 30 µM
[4]
  AC50: > 30 µM
Adenosine receptor A3
  AC50: > 30 µM
Acetylcholinesterase
  AC50: > 30 µM
D(1A) dopamine receptor
  AC50: > 30 µM

## CC1=C(/C=C/C(C)=C/C=C/C(C)=C/C=C/C=C(C)/C=C/C=C(C)/C=C/C2=C(C)CCCC2(C)C)C(C)(C)CCC1 [BETA CAROTENE]
Mu-type opioid receptor
  AC50: > 30 µM
Thromboxane A2 receptor
  AC50: > 30 µM
[1]
  AC50: 5.22 µM
[2]
  AC50: > 30 µM
Histamine H3 receptor
  AC50: > 30 µM
Progesterone receptor
  AC50: > 30 µM
[3]
  AC50: > 30 µM
Prothrombin
  AC50: > 30 µM
[4]
  AC50: > 30 µM
Adenosine receptor A3
  AC50: > 30 µM
Acetylcholinesterase
  AC50: > 30 µM
D(1A) dopamine receptor
  AC50: > 30 µM
